Literature values, collected in patent US8691277B2, “Long acting sustained-release formulation containing dopamine receptor agonist and the preparation method thereof” (Shandong Luye Pharmaceutical Co., Ltd., priority 2004, dated 2014).

Legend:
[1] = in vivo
[2] = in vivo, po

| half-life [1] | bioavailability [2] | SMILES |
| --- | --- | --- |
| only a couple of hours | – | CCCN[C@H]1CCc2nc(N)sc2C1 [pramipexole] |
| only a couple of hours | 1-5% | CCCN(CCc1cccs1)[C@H]1CCc2c(O)cccc2C1 [rotigotine] |
